Test results as given in US11299715B2, “Use of iNOS inhibitors to increase viral yield in culture” (priority 2013, dated 2022).

System: d27-1/GFP HSV-1
Assay: Effect of valproic acid pretreatment on d27-1/GFP HSV-1 viral titer in V27 cells
Assay type: cell-based
Experimental: Valproic acid (Sigma-P4543) was dissolved to 1 M concentration in water. V27 cells were seeded into six well plates the day prior to infection at 6×10^5 cells/well. […] This was vortexed well and added to the wells. Plates were incubated for six hours, aspirated and infectious HSV-1 d27-1 stock added at MOI 0.15 (=cell seed density×0.15/pfu titer of HSV stock) per 1 ml of DMEM (no additives).
1 ml of infectious inoculum was added per well and incubated for 1-2 hours at 37° C., 5% CO2 incubator after which time 1.5 ml of DMEM-10% FBS was added. The plates were returned to the incubator for 70-74 hours. Free media was harvested, vortexed, and centrifuged at 1,100×g for 10 minutes at 4° C. Supernatant was transferred to a new dispensing tube, vortexed, and aliquoted. Stocks were frozen at −80° C.
V27 cells were seeded into six well plates the day prior to infection at 6×10^5 cells/well and the next day, different concentrations of VA were added to wells. Plates were incubated for 6 hrs, aspirated and ⅖ vol of media containing infectious HSV-1 d27-1 stock was added and incubated for 1-2 hours at 37° C., […] after which time ⅗ vol of DMEM 10% FBS media was added. The cultures were returned to the incubator and supernatant was harvested after 70-74 hours.

For `CCCC(CCC)C(=O)O` [VA, valproic acid], the “titer of d27-1/GFP HSV-1 compared to untreated control” value (VA 5 mM, 6 hrs pretreatment) was “slightly elevated” and the “titer of d27-1/GFP HSV-1 compared to untreated control” value (VA concentrations below and above 5 mM, pretreatment) was “inhibitory effect”.
